The species named for experiment [1] is Cavia porcellus. Briefly: Intrinsic activity at beta-adrenoceptor in guinea pig trachea assessed as tracheal relaxation at 10^-10 to 10^-4 M relative to control. Format: tissue-based.
The species named for experiment [2] is Cavia porcellus. Nature of the experiment: Agonist activity at beta-adrenoceptor in guinea pig trachea assessed as tracheal relaxation. Type of experiment: tissue-based.
The target of experiment [3] is T1, Adrenergic receptor beta (Rattus norvegicus) (UniProt P18090+P10608+P26255). Particulars: Sprague-Dawley.
Description: Agonist activity at beta-adrenoceptor in Sprague-Dawley rat fat cells assessed as cAMP accumulation after 10 mins
Experiment [4] concerns the target T1, Adrenergic receptor beta (Rattus norvegicus). The conditions noted are these: Sprague-Dawley, Plasma.
Description: Agonist activity at beta-adrenoceptor in Sprague-Dawley rat adipocytes assessed as adenylate cyclase activity in plasmalemma measured as radiolabelled cAMP level after 10 mins by scintillation counting
Experiment [5] shares this target. Particulars: Sprague-Dawley. The source holds these as a separate data set.
Description: Agonist activity at beta-adrenoceptor in Sprague-Dawley rat adipocytes assessed as lipolysis measured as glycerol release
For experiment [6], the species on record is Cavia porcellus. Briefly: Intrinsic activity at beta-adrenoceptor in guinea pig atrium assessed as positive chronotropic effect at 10^-10 to 10^-4 M relative to control. Format: tissue-based. Particulars: Cardiac atrium.
Experiment [7] is filed under the species Cavia porcellus. Briefly: Agonist activity at beta-adrenoceptor in guinea pig atrium assessed as positive chronotropic effect. Particulars: Cardiac atrium. Type of experiment: tissue-based.

As for `COc1cc(C[C@@H]2NCCc3cc(O)c(O)cc32)cc(OC)c1OC` (racemic), the Intrinsic activity in experiment [1] came out at 0.88; in experiment [6], 0.9. The pD2 in experiment [2] was 9; in experiment [3], 7.7; in experiment [4] it was 8.5; in experiment [5] it was 7.3; in experiment [7], 9.1.
Turning to `COc1cc([C@@H](O)[C@@H]2NCCc3cc(O)c(O)cc32)cc(OC)c1OC` (racemic), the values for the Intrinsic activity in experiment [1] and in experiment [6] were 0.76 and 0.78, respectively. In addition, the pD2 in experiment [2] is 6; in experiment [3] it was 6.4; in experiment [4] it was 6.2; in experiment [5], 6.8; in experiment [7], 6.1.
`COc1cc([C@H](O)[C@@H]2NCCc3cc(O)c(O)cc32)cc(OC)c1OC` (racemic): the Intrinsic activity in experiment [1] was found to be 0.88; in experiment [6], 0.8. In addition, the pD2 in experiment [2] was determined as 6.8; in experiment [3], 6.7; in experiment [4] it was 6.8; in experiment [5], 7; in experiment [7], 6.5.

These data come from ChEMBL document CHEMBL3243971, “Synthesis and beta-adrenoceptor activity of the erythro and threo isomers of substituted alpha-hydroxytrimetoquinol” (J Med Chem, 1978).
